In paper PMC7179450, “Primary Human Hepatocytes, But not HepG2 or Balb/c 3T3 Cells, Efficiently Metabolize Salinomycin and Are Resistant to Its Cytotoxicity” (Molecules, 2020):
Where two headings read alike, the source gives them in different places.

How the values were obtained:
[1] = tested on: HepG2 cells; test: TPC assay in HepG2; format: cell-based, human; conditions: for EC50: Homo sapiens, read-out: EC50 (effective concentration)
Description: (§1) The HepG2 cell line was purchased from the American Type Culture Collection (ATCC® HB-8065™). The cells were cultured in Minimum Essential Medium Eagle (MEME) (Sigma–Aldrich Co. (St. Louis, MO, USA)). Normal murine embryonic fibroblasts, Balb/c 3T3 clone A31 cell line (gift from Department of Swine Diseases of the National Veterinary Research Institute in Pulawy) was cultured in Dulbecco’s Modified Eagle’s Medium (DMEM) (Invitrogen Corporations (Paisley, UK)). The media were supplemented with 10% BCS (Balb/c 3T3), 10% FBS (HepG2), 1% L-glutamine, and 1% antibiotic solution. The cells were maintained in 75 cm^2 cell culture flasks in humidified incubator at 37 °C, in an atmosphere of 5% CO2. The medium was refreshed every two or three days and the cells were trypsinized by 0.25% trypsin–0.02% EDTA after reaching 70–80% confluence. The initial cell viability was determined with the trypan blue exclusion test. Single cell suspensions were prepared and adjusted to a density of 2 × 10^5 cell/mL (HepG2) and 1 × 10^5 cell/mL (Balb/c 3T3). The cell suspension was transferred to 96-well plates (100 µL/well) and incubated for 24 h before exposure to the studied drugs.
The concentration ranges of the drugs were chosen according to their solubility and their plasma level. Each drug was dissolved in DMSO. The final concentration of DMSO was 0.1% or 0.2% in the medium for both samples and corresponding controls. […] All drug solutions in medium were freshly prepared and protected from light. SAL was tested in seven concentrations from 0.39 to 25 µg/mL. Tiamulin was added in two concentrations (1 and 10 µg/mL) or just one concentration (1 µg/mL) to cell lines or human hepatocytes, respectively. […] The cytotoxicity was assessed after 24 and 48 h of exposure of cell lines or after 12 and 24 h exposure of PHH. […]
The assay was based on staining total cellular protein [14]. […] The absorbance was measured at 595 nm in a microplate reader using blank as a reference. Cytotoxicity was expressed as a percentage of the negative control (0.1% or 0.2% DMSO).

[2] = tested on: Balb/c 3T3 cells; test: LDH leakage assay in Balb/c 3T3; format: cell-based; conditions: Mus musculus, BALB/c3T3, Balb/c 3T3, LDH, mean ± SEM, n = 3, read-out: EC50 (effective concentration)
Description: as §1, with “The medium was refreshed every two or three days and the cells were trypsinized by 0.25% trypsin–0.02% EDTA after reaching 70–80% confluence.” left out, “Single cell suspensions were prepared and adjusted to a density of 2 × 10^5 cell/mL (HepG2) and 1 × 10^5 cell/mL (Balb/c 3T3). The cell suspension was transferred to 96-well plates (100 µL/well) and incubated for 24 h before exposure to the studied drugs.” left out
The concentration ranges of the drugs were chosen according to their solubility and their plasma level. […] The cytotoxicity was assessed after 24 and 48 h of exposure of cell lines or after 12 and 24 h exposure of PHH. […]
The integrity of the plasma membrane was assessed through the test of lactate dehydrogenase (LDH) release, which was monitored using a commercially available Cytotoxicity Detection Kit (LDH) (Roche Diagnostics, Basel, Switzerland). […] The absorbance was measured at 492 nm in a microplate reader using a blank as a reference.

[3] = tested on: HepG2 cells; test: Biotransformation of SAL and metabolites in HepG2 (LC-MS/MS); format: in vitro ADME, human; conditions: HepG2, only after induction with prednisolone, 24 h (Figure 2C)
Description: as §1, with “The medium was refreshed every two or three days and the cells were trypsinized by 0.25% trypsin–0.02% EDTA after reaching 70–80% confluence.” left out, “Single cell suspensions were prepared and adjusted to a density of 2 × 10^5 cell/mL (HepG2) and 1 × 10^5 cell/mL (Balb/c 3T3). The cell suspension was transferred to 96-well plates (100 µL/well) and incubated for 24 h before exposure to the studied drugs.” left out
The medium samples from microplate wells were collected for identifying SAL metabolites and normalized to a cell number. An aliquot of 200 µL of each sample was measured to Eppendorf tube. […] The dry residue was reconstituted in 50% acetonitrile and analyzed with LC-MS/MS. […]
SAL (m/z 773.4 to m/z 431.3) was monitored in multiple reaction monitoring (MRM) modes. […]
The signals for further analysis were selected with the LightSight 2.3 software. […] These MRM transitions (with 20 chromatographic peaks) were then quantified with Multiquant 2.1. software. Quantitative analysis was performed for SAL. […]

[4] = tested on: turkeys; conditions: cited from earlier work
[5] = tested on: rabbits; conditions: cited from earlier work
[6] = mouse, in vivo; cited from earlier work

## CC[C@@H](C(=O)[C@@H](C)[C@@H](O)[C@H](C)[C@@H]1O[C@@H]([C@@H](CC)C(=O)O)CC[C@@H]1C)[C@H]1O[C@]2(C=C[C@@H](O)[C@]3(CC[C@@](C)([C@H]4CC[C@](O)(CC)[C@H](C)O4)O3)O2)[C@H](C)C[C@@H]1C [SAL, salinomycin]
[1]; HepG2, 24 h, SAL alone or in both drug combinations (Figure S2)
  lowest concentration with significant effect on total protein content: 0.39 µg/mL
[1]; HepG2, 24 h
  EC50: 13.3 ± 2.5 µg/mL
[1]; HepG2, 48 h
  EC50: 11.3 ± 1.3 µg/mL
[2]; 24 h exposure
  EC50: > 25 µg/mL
[2]; 48 h exposure
  EC50: 23.1 ± 0.8 µg/mL
[3]
  percentage of SAL metabolised: ca. 20%
[4]
  LD50: 0.6 mg/kg b.w.
[5]
  LD50: 21 mg/kg b.w.
[6]
  unchanged SAL in excreta, share of administered dose: 2%
